These results are taken from patent publication US20240299339A1, “COMPOSITION FOR SUPPRESSING MUSCLE DAMAGE” (OTSUKA PHARMACEUTICAL CO., LTD., priority 2021, published 2024).

The nature of the assay: Verification of function of KMP using 400-m run: blood markers in healthy subjects. The settings on record: 16 healthy subjects (20 to 22 years old); single dose of capsule food containing 10 mg of KMP, 3 h before two 400-m full-speed runs 90 min apart; vs placebo. Format: in vivo, human. The method, then: According to usual methods, blood samples were taken, and the concentration of each blood marker was measured. […] It is known that blood myoglobin is detected with muscle fiber damage and that its concentration increases with muscle fiber damage (J. Appl. Physiol. 83 (4): 1076-1082, 1997).
The capsule foods used in the test were prepared according to the following procedures. Quinoa grains were extracted twice with 50% aqueous ethanol at 70° C., followed by concentration under reduced pressure. To a solution obtained by purifying the resultant with resin, Aromase H2 (produced by Amano Enzyme, Inc.) was added, and the enzyme was allowed to act (conversion into aglycone) while stirring at 50° C. The resulting reaction liquid was heated to 100° C. and maintained for 15 minutes to inactivate the enzyme. Thereafter, the treated liquid was freeze-dried to give an ethanol extraction powder. To the powder, starch was added in an amount equal to the amount of the powder (on a weight basis), followed by mixing. Capsules were filled with the resulting mixture in an amount of 116 mg (including 2.5 mg of kaempferol) per capsule. The subjects ingested four capsules (10 mg of kaempferol in total) at one time. The food used as the placebo was obtained by filling capsules with only starch.

The structures appear in SMILES notation.

As for `O=c1c(O)c(-c2ccc(O)cc2)oc2cc(O)cc(O)c12` [KMP, Kaempferol], the “blood myoglobin level after running at full speed” value is “significantly lower”.
